Measurements from paper PMC7830597, “Derivatives of Tenuazonic Acid as Potential New Multi-Target Anti-Alzheimer’s Disease Agents” (Biomolecules, 2021).

How the values were obtained:
[1] = target: AChE of electroforus electricus (electric eel) (Electrophorus electricus, UniProt O42275); assay: biochemical; settings: AChE from electric eel; mean of three independent experiments ± SEM; read-out: eeAChEi IC50
Experimental: All new racemic compounds were tested as acetylcholinesterase inhibitors via an in vitro assay, following a modification of Ellman’s method in three independent experiments, using tacrine as a reference compound. […] Enzyme inhibition assays were performed using an adaptation of Ellman’s method. The readings were made in a spectrophotometer Perkin-Elmer Lambda 35 UV-Vis. Enzyme activity is measured by following the increase in yellow color produced from thiocholine when it reacts with dithiobisnitrobenzoate ion (DTNB). DTNB solution was obtained dissolving the reagent in HEPES buffer with salts, namely NaCl (50 mM) and MgCl2 (20 mM), obtaining a 3 mM solution. The enzyme AChE of electroforus electricus (electric eel) stock (500 U) was dissolved in TRIS 50 mM, pH 8.0, being posteriorly diluted to assay concentrations (5 U), obtaining an aliquot of 1 mL. The enzyme substrate used was acetylthiocholine iodide (AThCh, 16 mM), which was prepared with deionized water. The compounds tested were diluted in MeOH or DMSO (1 mg/mL, 2–7 × 10^−3 M), with further dilution, and five different concentrations were used for each compound, obtaining different percentages of AChE inhibition. The assay consists in the addition of HEPES (50 mM, pH = 8), inhibitor, AChE and MeOH in a 1 mL cuvette. The mixture was left to incubate for 15 min and, after that, AThCh and DTNB were added. The enzymatic reaction was followed through the measurements of absorbencies at 405 nm (Perkin Elmer Lambda 35 spectrophotometer equipped with a temperature programmer PTP 1þ1 Peltier System, using thermostated (T = 25.0 ± 0.1 °C) 1 cm path length cells) during 5 min. A blank solution containing all the components except the enzyme, that was substituted for equal volume of HEPES, was used. A control reaction was used using MeOH instead of the new compounds and was considered the reaction corresponding to 100% enzymatic activity. Each assay was performed in quintupled.

[2] = Radical scavenging activity, DPPH method; settings: DPPH assay; mean ± SEM of 3 independent experiments
Experimental: Therefore, they were assayed for radical scavenging activity using the DPPH method.
The final volume of the assay was 3.5 mL, corrected with MeOH to obtain different concentrations of our compound in each assay. The control solution was composed of MeOH and DPPH [14]. After 30 min, at RT, protected from light, the absorbance was measured at 517 nm (Perkin Elmer Lambda 35 spectrophotometer equipped with a temperature programmer PTP 1þ1 Peltier System, using thermostated (T¼25.0 ± 0.1 °C) 1 cm path length cells), against a blank solution (MeOH). The assays were performed in triplicate, in which the EC50 was obtained through the graphical representation of the %AA vs. the inhibitor concentration.

[3] = test system: SH-SY5Y human neuroblastoma cells; assay: Dose-response cell viability screening, MTT reduction assay; format: cell-based; settings: for cytotoxicity on SH-SY5Y cell line: 10 μM to 100 μM, 24 h, at the active concentrations; for highest non-toxic concentration (selected concentration): SH-SY5Y cells exposed for 25 h
Experimental: SH-SY5Y human neuroblastoma cells (ATCC-CRL-2266) were seeded in DMEM/F12 (Dulbecco’s Modified Eagle Medium/Ham’s F-12 Nutrient Mixture; Thermo Fisher Scientific) with 10% heat inactivated fetal bovine serum, 50 U/mL penicillin and 50 U/mL streptomycin under a humidified atmosphere with 95% relative humidity at 37 °C at a 0.16 × 10^6 cells/mL density. Stock solutions from tested compounds (1, 2, 4 and 5) were prepared in DMSO at a 25 mM concentration and stored at −20 °C until needed. In order to select the highest non-toxic concentration, a dose-response screening was performed, where SH-SY5Y cells were exposed to the compounds for 25 h. The selected concentrations for each compound were: 75 µM final concentration for 1 and 2; 10 µM final concentration for 4 and 20 µM final concentration for 5. […] For the neuroprotection assays, the selected compounds were added to the cell media 1 hour prior to the incubation with Aβ1-42 or L-ascorbic acid/ferrous sulphate. Aβ1-42 or L-ascorbic acid/ferrous sulphate treatment was maintained for another 24 h. Aβ1-42 was prepared as 276.9 µM stock in sterile water and administrated in the medium at a 2.5 µM final concentration. Ferrous sulphate was freshly prepared as 0.36 M stock in water and added to the medium at 2.5 mM final concentration. L-ascorbic acid was freshly prepared as 80 mM stock in water and added to the medium at 5 mM final concentration. Aβ1-42 was purchased from Bachem (Torrance, CA, USA) and ferrous sulphate and L-ascorbic acid from Sigma Chemical Co (St. Louis, MO, USA).
Cell viability was measured by using the MTT (3-(4,5-dimethylthiazol-2-yl)-2,5-diphenyl tetrazolium bromide) reduction assay. This test is based on the presence of succinate dehydrogenase enzyme in viable cells, that allows them to metabolize MTT into a formazan. After treatment, the medium was removed, and cells were washed with 1x PBS one time to remove dead cells. 200 µL of MTT solution (0.5 mg/mL) was added to each well and incubated for 2 h protected from light. Formazan precipitates were then dissolved in DMSO and absorbance measured at 570 nm. The ability to reduce MTT was expressed as a percentage of untreated control cells.
Figure 10 Dose-response screening of compounds 1, 2, 4 and 5 on SH-SY5Y neuronal cell line. Overnight cultures were treated with a range of concentrations from 10 μM to 100 μM for 24 h and cellular viability was determined by employing the MTT reduction assay.

Chain of AChE of electroforus electricus (electric eel) (O42275 24-633): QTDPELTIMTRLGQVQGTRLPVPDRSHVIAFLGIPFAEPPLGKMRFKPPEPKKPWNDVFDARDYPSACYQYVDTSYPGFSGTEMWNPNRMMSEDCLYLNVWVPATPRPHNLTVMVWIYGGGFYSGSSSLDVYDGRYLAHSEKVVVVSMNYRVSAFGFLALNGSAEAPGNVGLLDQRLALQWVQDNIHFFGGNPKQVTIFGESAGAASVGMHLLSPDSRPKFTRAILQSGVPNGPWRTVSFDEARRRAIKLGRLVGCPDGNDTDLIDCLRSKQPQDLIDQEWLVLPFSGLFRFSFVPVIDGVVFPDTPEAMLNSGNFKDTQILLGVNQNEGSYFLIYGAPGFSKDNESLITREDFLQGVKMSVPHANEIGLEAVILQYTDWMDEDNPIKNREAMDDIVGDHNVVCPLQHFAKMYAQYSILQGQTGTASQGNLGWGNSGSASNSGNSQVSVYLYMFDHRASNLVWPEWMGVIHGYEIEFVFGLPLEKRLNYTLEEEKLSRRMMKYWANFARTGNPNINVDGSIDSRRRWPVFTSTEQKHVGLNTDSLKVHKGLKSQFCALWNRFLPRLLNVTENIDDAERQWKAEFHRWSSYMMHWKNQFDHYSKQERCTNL

| Structure (SMILES) | IC50 [1] | Antioxidant Activity EC50 [2] | cytotoxicity on SH-SY5Y cell line [3] | highest non-toxic concentration (selected concentration) [3] |
| --- | --- | --- | --- | --- |
| CCOC(=O)C1=C(O)C(C(C)C)NC1=O (centres unmarked) [Compound 1, Ethyl 4-hydroxy-5-isopropyl-2-oxo-2,5-dihydro-1H-pyrrole-3-carboxylate] | 42 ± 3 µM | 10.8 ± 0.2 µmol/µmol of DPPH | do not show (except for compound 4) cytotoxicity | 75 µM |
| CCOC(=O)C1=C(O)C(Cc2ccccc2)NC1=O (centres unmarked) [Compound 2, Ethyl 5-benzyl-4-hydroxy-2-oxo-2,5-dihydro-1H-pyrrole-3-carboxylate] | 57 ± 4 µM | 6.3 ± 0.1 µmol/µmol of DPPH | do not show (except for compound 4) cytotoxicity | 75 µM |
